Experimental findings from patent US20230077362A1 (CORTEVA AGRISCIENCE LLC, priority 2019, published 2023) are described below.

What all share (type): in vivo
Assay [1] concerns Cabbage Looper (Trichoplusia ni) ("CL"), second instar larvae. Nature of the assay: Bioassay on cabbage looper (CL), 128-well diet tray assay. The settings on record: Trichoplusia ni. In a few lines: (§1)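 Mortality (%) is scored well by well after five to seven days at 25° C. on a 14:10 light:dark regime. The value given is the mean of eight wells.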
In assay [2] the test system is Beet Armyworm (Spodoptera exigua) ("BAW"), second instar larvae. Put plainly: Bioassay on beet armyworm (BAW), 128-well diet tray assay. The settings on record: Spodoptera exigua. In a few lines:
as §1

Assay [3] deals with Green Peach Aphid ("GPA") (Myzus persicae), wingless adult and nymph stages. Nature of the assay: Bioassay on green peach aphid (GPA), foliar spray on infested cabbage seedlings. Particulars: Myzus persicae, foliar, 72 h. In outline: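 Cabbage seedlings with 2-3 true leaves, infested one day earlier with 20-50 wingless adult and nymph GPA, sprayed to runoff on both leaf sides; solvent check held 20% acetone/methanol (1:1). Live aphids counted after three days at about 25° C; corrected % control = 100*(X−Y)/X versus solvent check.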

Where [4] appears, read: read-out: CL (Biological Results, rating).
Where [5] appears, read: read-out: BAW (Biological Results, rating).
Setting [6] is: read-out: GPA (Biological Results, rating).

Like-named read-outs stand apart in the source and are kept apart here.

As to `Cc1ccc(C(C)C)c(N2C(=O)CS/C2=N\C(=O)Nc2ccc(-c3ncn(-c4ccc(OCC#N)cc4)n3)cc2F)c1` [Compound J344, (Z)-1-(4-(1-(4-(Cyanomethoxy)phenyl)-1H-1,2,4-triazol-3-yl)-2-fluorophenyl)-3-(3-(2-isopropyl-5-methylphenyl)-4-oxothiazolidin-2-ylidene)urea], the pest or weed control at 50 µg/cm2 in assay [1] (setting [4]) and in assay [2] (setting [5]) was 50 to 100% throughout. The pest or weed control at 200 µg/mL in assay [3] (setting [6]) lay within 0 to 80%.

As to `COc1ccc(C(C)C)c(N2C(=O)CS/C2=N\C(=O)Nc2ccc(-c3ncn(-c4cccc(OC(F)(F)F)c4)n3)cc2C)c1` [Compound J136, (Z)-1-(3-(2-Isopropyl-5-methoxyphenyl)-4-oxothiazolidin-2-ylidene)-3-(2-methyl-4-(1-(3-(trifluoromethoxy)phenyl)-1H-1,2,4-triazol-3-yl)phenyl)urea], the pest or weed control at 50 µg/cm2 in assay [1] (setting [4]) and in assay [2] (setting [5]) was 50 to 100% in each case. In addition, the pest or weed control at 200 µg/mL in assay [3] (setting [6]) was 0 to 80%.

`Cc1ccc(OCCC(F)(F)F)c(N2C(=O)CS/C2=N\C(=O)Nc2ccc(-c3ncn(-c4ccc(OC(F)(F)F)cc4)n3)cc2)c1` [Compound J316, (Z)-1-(3-(5-Methyl-2-(3,3,3-trifluoropropoxy)phenyl)-4-oxothiazolidin-2-ylidene)-3-(4-(1-(4-(trifluoromethoxy)phenyl)-1H-1,2,4-triazol-3-yl)phenyl)urea]: the pest or weed control at 50 µg/cm2 in assay [1] (setting [4]) and in assay [2] (setting [5]) was 50 to 100% each time. The pest or weed control at 200 µg/mL in assay [3] (setting [6]) was in the range of 0 to 80%.

On to `CN(C)c1ccc(OCC(F)(F)F)c(N2C(=O)CS/C2=N\C(=O)Nc2ccc(-c3ncn(-c4ccc(OC(F)(F)F)cc4)n3)cc2F)c1` [Compound J193, (Z)-1-(3-(5-(Dimethylamino)-2-(2,2,2-trifluoroethoxy)phenyl)-4-oxothiazolidin-2-ylidene)-3-(2-fluoro-4-(1-(4-(trifluoromethoxy)phenyl)-1H-1,2,4-triazol-3-yl)phenyl)urea], for which the pest or weed control at 50 µg/cm2 in assay [1] (setting [4]) and in assay [2] (setting [5]) was 50 to 100% each time. Further, the pest or weed control at 200 µg/mL in assay [3] (setting [6]) was 0 to 80%.

Take `CC(C)c1cc(F)c(N(C)C)cc1N1C(=O)CS/C1=N\C(=O)Nc1ccc(-c2ncn(-c3ccc(C(F)(F)F)cc3)n2)cc1F` [Compound J183, (Z)-1-(3-(5-(Dimethylamino)-4-fluoro-2-isopropylphenyl)-4-oxothiazolidin-2-ylidene)-3-(2-fluoro-4-(1-(4-(trifluoromethyl)phenyl)-1H-1,2,4-triazol-3-yl)phenyl)urea]: the pest or weed control at 50 µg/cm2 in assay [1] (setting [4]) and in assay [2] (setting [5]) was 50 to 100% throughout. Also, the pest or weed control at 200 µg/mL in assay [3] (setting [6]) is 0 to 80%.

Consider `COCc1ccc(C)cc1N1C(=O)CS/C1=N\C(=O)Nc1ccc(-c2ncn(-c3ccc(OC(F)(F)F)cc3)n2)cc1F` [Compound J66, (Z)-1-(2-Fluoro-4-(1-(4-(trifluoromethoxy)phenyl)-1H-1,2,4-triazol-3-yl)phenyl)-3-(3-(2-(methoxymethyl)-5-methylphenyl)-4-oxothiazolidin-2-ylidene)urea], for which the pest or weed control at 50 µg/cm2 in assay [1] (setting [4]) and in assay [2] (setting [5]) was 50 to 100% in each case. The pest or weed control at 200 µg/mL in assay [3] (setting [6]) is 0 to 80%.

On to `COc1ccc(C(C)C)c(N2C(=O)CS/C2=N\C(=O)Nc2ccc(-c3ncn(-c4cccc(OC(F)(F)F)c4)n3)cc2F)c1` [Compound J154, (Z)-1-(2-Fluoro-4-(1-(3-(trifluoromethoxy)phenyl)-1H-1,2,4-triazol-3-yl)phenyl)-3-(3-(2-isopropyl-5-methoxyphenyl)-4-oxothiazolidin-2-ylidene)urea], for which the pest or weed control at 50 µg/cm2 in assay [1] (setting [4]) and in assay [2] (setting [5]) was 50 to 100% throughout. Moreover, in assay [3] (setting [6]), the pest or weed control at 200 µg/mL fell in the range of 0 to 80%.

Consider `COC(C)c1ccc(C)cc1N1C(=O)CS/C1=N\C(=O)Nc1ccc(-c2ncn(-c3ccc(SC(F)(F)F)cc3)n2)cc1` (stereo not drawn) [Compound J350, (Z)-1-(3-(2-(1-methoxyethyl)-5-methylphenyl)-4-oxothiazolidin-2-ylidene)-3-(4-(1-(4-((trifluoromethyl)thio)phenyl)-1H-1,2,4-triazol-3-yl)phenyl)urea], for which the pest or weed control at 50 µg/cm2 in assay [1] (setting [4]) and in assay [2] (setting [5]) was 50 to 100% each time. In addition, in assay [3] (setting [6]), the pest or weed control at 200 µg/mL was in the range of 0 to 80%.

On to `COC(c1ccc(C)cc1N1C(=O)CS/C1=N\C(=O)Nc1ccc(-c2ncn(-c3ccc(SC(F)(F)F)cc3)n2)cc1F)C(F)(F)F` (stereo not drawn) [Compound J229, (Z)-1-(2-Fluoro-4-(1-(4-((trifluoromethyl)thio)phenyl)-1H-1,2,4-triazol-3-yl)phenyl)-3-(3-(5-methyl-2-(2,2,2-trifluoro-1-methoxyethyl)phenyl)-4-oxothiazolidin-2-ylidene)urea], for which the pest or weed control at 50 µg/cm2 in assay [1] (setting [4]) and in assay [2] (setting [5]) was 50 to 100% each time. Further, in assay [3] (setting [6]), the pest or weed control at 200 µg/mL is 0 to 80%.

As for `Cc1ccc(COCC(F)F)c(N2C(=O)CS/C2=N\C(=O)Nc2ccc(-c3cn(-c4ccc(S(=O)(=O)C(F)(F)F)cc4)cn3)cc2F)c1` [Compound J648, (Z)-1-(3-(2-((2,2-Difluoroethoxy)methyl)-5-methylphenyl)-4-oxothiazolidin-2-ylidene)-3-(2-fluoro-4-(1-(4-((trifluoromethyl)sulfonyl)phenyl)-1H-imidazol-4-yl)phenyl)urea], the pest or weed control at 50 µg/cm2 in assay [1] (read-out: CL rating) and in assay [2] (read-out: BAW rating) was 50 to 100% in each case. The pest or weed control at 200 µg/mL in assay [3] (read-out: GPA rating) lay within 0 to 80%.

`CC(C)c1ccc(N(C)C)cc1N1C(=O)CS/C1=N\C(=O)Nc1ccc(-c2ncn(-c3ccc(SC(F)(F)F)cc3)n2)cc1` [Compound J368, (Z)-1-(3-(5-(Dimethylamino)-2-isopropylphenyl)-4-oxothiazolidin-2-ylidene)-3-(4-(1-(4-((trifluoromethyl)thio)phenyl)-1H-1,2,4-triazol-3-yl)phenyl)urea]: the pest or weed control at 50 µg/cm2 in assay [1] (read-out: CL rating) and in assay [2] (read-out: BAW rating) was 50 to 100% each time. For the same compound, in assay [3] (read-out: GPA rating), the pest or weed control at 200 µg/mL lay within 0 to 80%.

For the compound `COCOc1cc(-c2ncn(-c3ccc(OC(F)(F)F)cc3)n2)ccc1NC(=O)/N=C1\SCC(=O)N1c1cc(N(C)C)ccc1C(C)C` [Compound J172, (Z)-1-(3-(5-(Dimethylamino)-2-isopropylphenyl)-4-oxothiazolidin-2-ylidene)-3-(2-(methoxymethoxy)-4-(1-(4-(trifluoromethoxy)phenyl)-1H-1,2,4-triazol-3-yl)phenyl)urea], the pest or weed control at 50 µg/cm2 in assay [1] (setting [4]) and in assay [2] (setting [5]) was 50 to 100% each time. Moreover, the pest or weed control at 200 µg/mL in assay [3] (setting [6]) lay in the range of 0 to 80%.

As for `Cc1ccc(OCCC(F)(F)F)c(N2C(=O)CS/C2=N\C(=O)Nc2ccc(-c3ncn(-c4cccc(C(F)(F)F)c4)n3)cc2C)c1` [Compound J134, (Z)-1-(3-(5-Methyl-2-(3,3,3-trifluoropropoxy)phenyl)-4-oxothiazolidin-2-ylidene)-3-(2-methyl-4-(1-(3-(trifluoromethyl)phenyl)-1H-1,2,4-triazol-3-yl)phenyl)urea], the pest or weed control at 50 µg/cm2 in assay [1] (setting [4]) and in assay [2] (setting [5]) was 50 to 100% throughout. For the same compound, in assay [3] (setting [6]), the pest or weed control at 200 µg/mL is 0 to 80%.
